Read-outs that look alike come from different tables or passages of the source. Positions of bridges follow the written chain, without caps; N, C: chain ends. Residues, ends and D or L forms follow the SMILES beside them.

Data set [1] has as its system P. aeruginosa. Briefly: Serial passage/resistance assay. Type of data set: cell-based, Pseudomonas aeruginosa. Conditions: continuous exposure to sub-lethal doses, 30 days.
Data set [2] deals with human lung fibroblasts (IMR90 cells (ATCC CCL-186)). Briefly: Cytotoxicity. The conditions noted are these: even at doses>80 μM. Type of data set: cell-based.
The subject of the next data set is human erythrocytes. Briefly: Haemolytic assay. Type of data set: cell-based. The protocol:
The hemolytic activity of the peptides was determined using fresh human erythrocytes from healthy donors. Blood was centrifuged and the erythrocytes were washed three times with a phosphate-buffered saline (PBS: 35 mM phosphate buffer/150 mM NaCl, pH 7.4). […] Samples were incubated at 37° C. for 60 min. After incubating the mixtures were centrifuged at 1,500 rpm for 10 min. The release of hemoglobin was monitored by measuring the absorbance (Abs) of the supernatant at 405 nm. Hemolytic rates of 0 and 100% were determined in PBS and 0.1% Triton X-100, respectively. The percentage of hemolysis was calculated by employing the following equation: Percentage hemolysis=[([…])/(Abs405 nm in 0.1% Triton X-100−Abs405 nm in PBS)]×100.

Data set [3] concerns Human Bronchial Epithelial Cell Line (BEAS; ATCC CRL-9609). Kind of data set: Cytotoxicity, resazurin cell viability. In kind it is cell-based. The conditions noted are these: even at doses>80 μM. The procedure: (§1) The toxicity of Michelicin on human cells was tested as previously described (Borie et al., 2017; Oyama et al., 2017). Briefly, human cells were cultured in Dulbecco's modified essential medium (DMEM) supplemented with 10% fetal calf serum (FCS), 1% L-glutamine and 1% antibiotics (all from Invitrogen). Cells were routinely grown in onto 25 cm^2 flasks maintained in a 5% CO2 incubator at 37° C. For toxicity assay, cells grown on 25 cm^2 flasks were detached using trypsin-EDTA solution (Thermofisher) and seeded into 96-well cell culture plates (Greiner Bio-one) at approximately 10^4 cells per well (counted using Mallasez's chamber). The cells were grown at 37° C. in a 5% CO2 incubator until they reached confluence (approximately 48-72 h of seeding). Wells were then aspirated and increasing concentrations of AMP were added to the cells and incubated for a further 48 h at 37° C. in a 5% CO2 incubator. The wells were then emptied, and cell viability was evaluated using resazurin based in vitro toxicity assay kit (Sigma-Aldrich) following manufacturer's instructions. Briefly, resazurin stock solution was diluted 1:100 in sterile PBS containing calcium and magnesium (PBS++, pH 7.4) and emptied wells were filled with 100 μL of the resazurin diluted solution. After 4 h incubation at 37° C. with the peptide treated cells, fluorescence intensity was measured using microplate reader (SynerMix, Bioteck) (excitation wavelength of 530 nm/emission wavelength of 590 nm). The fluorescence values were normalized by the controls and expressed as percentage of cell viability. The IC50 values of tested AMP on cell viability (i.e. the concentration of peptides causing a reduction of 50% of the cell viability) were calculated using GraphPad® Prism 7 software. Two cell lines were tested: Human Bronchial Epithelial Cell Line (BEAS; ATCC CRL-9609) and Human umbilical vein endothelial cell (HUVEC).
(Alamar Blue is a resazurin reagent that responds to reducing activity.)

Data set [4] concerns Human umbilical vein endothelial cell (HUVEC). Kind of data set: Cytotoxicity, resazurin cell viability. In kind it is cell-based. The conditions noted are these: even at doses>80 μM. The procedure: as §1
A short description of data set [5]: Cytotoxicity, resazurin cell viability. Type of data set: cell-based, human. The conditions noted are these: human, 80 μM, 48 h. The protocol:
as §1

Data set [6] relates to Mycobacterium tuberculosis mc^26230.
The subject of data set [7] is P. aeruginosa.
In data set [8] the test system is P. aeruginosa. Kind of data set: Membrane permeabilization assay (propidium iodide). Conditions: 2.5 min of incubation, 37° C., 3 times their MIC; CTAB at 300 μM. In kind it is cell-based, Pseudomonas aeruginosa. The procedure: Several tests were performed to determine the mechanism of the antimicrobial activity of the peptides of the invention. Most of the cationic AMP can increase the permeability of the bacterial membrane through pore-forming activity. We evaluated the ability of Michelicin to cause pore-formation using P. aeruginosa as model bacteria. Permeabilization of the bacterial membrane by Michelicin was evaluated using the cell-impermeable DNA probe propidium iodide (PI) (Di Pasquale et al., 2010; Oyama et al., 2017). PI can interact with DNA/RNA, leading to increase in fluorescence of the molecule. The bacterial membrane is impermeable to PI preventing its interaction with intracellular DNA/RNA. Thus, fluorescence of PI (expressed as RFU: relative fluorescence unit) only increases if membrane integrity is compromised through pore-formation. We measured the time-dependent effect of our peptide and other molecules on PI fluorescence at 37° C., all molecules being tested at 3 times their MIC. […] Kinetics of fluorescence variations (excitation at 530 nm/emission at 590 nm) were recorded using a microplate reader (SynergyMx, Bioteck) over 80 min period at 37° C. […] The permeabilization effect of the tested compound (i.e., Michelicin, Alvinellacin, Arenicin, and control, PMB or CTAB) was expressed as percentage of total permeabilization caused by CTAB.

Take `CO/N=C1\CN(c2nc3c(cc2F)c(=O)c(C(=O)O)cn3C2CC2)CC1CN` (stereo not shown) [Gemifloxacin]: in the data set with P. aeruginosa [1], the “Resistance induction / fold increase in initial MIC (in words)” value is reported as “relevant”.
A word on the viability: it is the share of living cells, or the viability signal relative to a control. Broadly, the MIC is the smallest concentration in the dilution series that meets the test's criterion for growth inhibition. Lower therefore signals a more susceptible organism. As for `CC[C@H](C)[C@@H]1NC(=O)[C@H](CCCNC(=N)N)NC(=O)[C@H](C(C)C)NC(=O)[C@@H](NC(=O)[C@@H](NC(=O)[C@@H](N)CCCNC(=N)N)C(C)C)CSSC[C@@H](C(=O)N[C@@H](Cc2c[nH]c3ccccc23)C(=O)N[C@@H](CC(N)=O)C(=O)N[C@H](C(=O)O)[C@@H](C)O)NC(=O)[C@H](CCCNC(=N)N)NC(=O)[C@H](CCCNC(=N)N)NC(=O)[C@H](Cc2ccc(O)cc2)NC(=O)[C@@H]2CSSC[C@H](NC1=O)C(=O)N[C@@H](CCCNC(=N)N)C(=O)N[C@@H](CC(N)=O)C(=O)NCC(=O)N[C@@H](CCCNC(=N)N)C(=O)N2` [Michelicin, RVC1VRIC2RNGRC3YRRC4WNT] (H-RVCVRICRNGRCYRRCWNT-OH; disulfide 3-16, 7-12), in data set [2], the “Cytotoxic activity towards IMR90 cells” value is “not observed”. Besides, in the data set on M. smegmatis mc^2155, the “M. smegmatis mc^2155 MIC” value fell in the range of 0.57 to 2.15 µM. Further, the Effect on hemolysis entry with human erythrocytes (1.2 to 40 μM, 60 min at 37° C., FIG. 2) was “far less than the effect of Arenicin”. The Hemolytic activity result with human erythrocytes (even at doses>80 μM) is “not observed”. Also, the “Cytotoxic activity towards BEAS cells” value in [3] is “not observed”. Moreover, the “Cytotoxic activity towards HUVEC cells” value in [4] is recorded as “not observed”. In addition, in data set [5] (BEAS human bronchial epithelial cells (ATCC CRL-9609), read-out: % of viability, BEAS cells), the viability at 48 h, 80 µM stood at 100%. Also, the viability at 48 h, 80 µM in [5] (HUVEC (human umbilical vein endothelial cells), read-out: % of viability, HUVEC cells) came to 95%. In [6], the “M. tuberculosis mc^26230 MIC” value was in the range of 12.3 to 13.0 µM and the MIC is 12.3 to 13.0 µM. Besides, in the data set on Vibrio alginolyticus, the “MIC with 565 mM NaCl” value was in the range of 0.62 to 1.25 µM and the “V. alginolyticus MIC” value is 1.25 to 2.5 µM. In the data set on Vibrio alginolyticus (24 h), this compound came in with an MIC of 0.07 to 0.15 µM. Besides, the “P. aeruginosa MIC” value in the data set on P. aeruginosa [7] fell in the range of 2.5 to 5 µM.
On to polymyxin B [PMB], for which the “Permeabilization (percentage of total permeabilization caused by CTAB)” value with P. aeruginosa [8] is on record as 2-5%.

Source of the values: patent US20250051403A1, “ANTIMICROBIAL PEPTIDES, VARIANTS AND CHEMICAL ANALOGUES THEREOF AND THEIR USES” (priority 2021, published 2025).
